According to patent publication US20230381322A1, “METHOD FOR PREPARING A DNA NETWORK WITH CONTROLLED CRYSTAL STRUCTURE AND A METHOD FOR INJECTING DRUGS USING THE DNA NETWORK” (UIF (University Industry Foundation), Yonsei University, priority 2022, published 2023):

Columns and labels:
[1] = tested on: HeLa cell-implanted BALB/c nude mice xenografts; assay: Localized anticancer therapy, intratumoral injection; type: in vivo; settings: single intratumoral injection, 2.5 mg/kg Dox, day 8
Method: All animal experiments were performed in compliance with the relevant laws and institutional guidelines of the Korea Institute of Science and Technology (KIST; KIST-2020-108). To evaluate the anticancer effects of pDNets, tumor-bearing BALB/c nude mice were prepared by injecting a suspension of 5×10^6 cells per mouse. The mice were divided into five groups (n=5): (1) PBS, (2) free DOX, (3) pDNet-H, (4) pDNet-M, and (5) pDNet-L. Each mouse was injected intratumorally with 2.5 mg/kg Dox when the size of the tumors was approximately 100-150 mm ^3. The tumor volumes and body weights of each mouse were observed every 2 days for 8 days. The length (L) and width (W) of the tumors were measured, and tumor volumes (V) were calculated using the following formula: V=L×W^2×0.52. To assess the biocompatibility of the pDNets, mice in each group were sacrificed after 8 days and the major organs were excised. To assess the biosafety of pDNets, the excised organs were paraffin-embedded and cut into 5 μm sections. Hematoxylin and eosin (H&E) staining was performed to observe the histopathological changes.

HeLa cells = assay: Cytotoxicity of released Dox, MTT assay; type: cell-based; settings: HeLa cells treated 24 h with Dox-released incubation solutions of pH 5.0, 6.4, 7.4
Method: Cell adhesion efficiencies were evaluated by incubating GelRed-labeled pDNets in cell media containing 2.5×10^5 Hela or NIH/3T3 cells for an hour. After the incubation, Calcein AM was used to stain the attached cells and the pDNets were washed three times with PBS. After staining, CLSM was used to visualize the respective fluorescence to determine the number of cells attached to each pDNet/mm^2. Evaluation of intracellular delivery of released Dox from pDNets was performed by loading pDNets with 20 nmol Dox. Dox-loaded pDNets were incubated in a pH 5.0, 6.4, and […] PBS solution for 32 h, which were then diluted 1, 2, and 4-fold with Dulbecco's modified Eagle's medium and used to treat 1×10^5 HeLa cells for 2 h. As a positive control, 20 nmol free Dox diluted similarly was used for treatment at final concentrations of 2, 4, and 8 μM to represent complete release of Dox. After the incubation, cell nuclei were stained with Hoechst and the intracellular delivery of Dox was compared using CLSM. […] After 24 h of treatment, cell viability was quantified using the MTT assay (Roche Diagnostics, Mannheim, Germany) following the manufacturer's protocol. […] The resulting formazan salts were dissolved by adding dimethyl sulfoxide, and the absorbance was measured at 570 nm using a multi-label microplate reader (Victor X5; Perkin Elmer).

COc1cccc2c1C(=O)c1c(O)c3c(c(O)c1C2=O)C[C@@](O)(C(=O)CO)C[C@@H]3O[C@H]1C[C@H](N)[C@H](O)[C@H](C)O1 [free Dox, doxorubicin]
tumor volume reduction relative to the control group [1]: ~35%
tumor weight reduction relative to the control group [1]: ~35%
in vitro therapeutic effect (cell viability, MTT) (HeLa cells): most effective in vitro
